Experimental findings from patent US8183238B2, “Bicyclic and tricyclic compounds as KAT II inhibitors” (priority 2009, dated 2012) are described below.

Counter-ions that a name gives are not always drawn. Like-named read-outs stand apart in the source and are kept apart here.

For the assay, the target named is human KAT II (hKAT II) enzyme (Homo sapiens, UniProt Q8N5Z0). Nature of the assay: KAT II Inhibition Spectra Assay. It counts as biochemical. How it is done: Formation of kynurenic acid (KYNA) is indirectly assessed by a decrease in light absorbance at 370 nm (OD370) as the L-kynurenine (KYN) substrate is converted by the human KAT II (hKAT II) enzyme into KYNA. An inhibitor would therefore inhibit the decrease in OD370.
human KAT II (hKAT II) enzyme, sequence (Q8N5Z0 30-425): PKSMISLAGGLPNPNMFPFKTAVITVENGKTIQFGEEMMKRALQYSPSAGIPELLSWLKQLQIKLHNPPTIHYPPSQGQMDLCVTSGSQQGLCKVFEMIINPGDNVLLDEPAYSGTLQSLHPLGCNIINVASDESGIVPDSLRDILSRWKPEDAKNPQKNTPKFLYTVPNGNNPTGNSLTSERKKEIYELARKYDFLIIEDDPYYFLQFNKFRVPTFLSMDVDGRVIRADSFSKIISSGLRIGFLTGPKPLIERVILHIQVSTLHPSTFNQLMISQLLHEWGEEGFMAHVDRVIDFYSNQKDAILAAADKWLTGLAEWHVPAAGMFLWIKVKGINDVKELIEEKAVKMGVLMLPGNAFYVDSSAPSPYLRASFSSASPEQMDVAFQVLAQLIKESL
The protocol was performed by placing the following reagents into a Costar 384 well black plate (30 μL total assay volume/well): • 10 μL of 3× concentrated compound; • 10 μL of 3× concentrated substrate mix (BGG (Sigma G-5009); 3 mM L-Kynurenine in 150 mM Tris Acetate (Sigma K3750); 3 mM α-ketoglutaric acid in 150 mM Tris Acetate (Sigma K2010); and 210 μM pyridoxal 5-phosphate (PLP) in 150 mM Tris Acetate (Sigma 9255)); and • 10 μL of 3× concentrated enzyme (15 nM enzyme in 150 mM Tris Acetate with 0.3% bovine serum).
Plates were sealed and incubated at 37° C. for 15-20 h before reading OD370 on a SpectraMax Plus plate reader. IC50s were generated by comparing the efficacy of compounds across a concentration range to inhibit a reduction in the OD370 value relative to assay wells with DMSO added in place of concentrated compound.

[1] abbreviates: Table 6, hKAT II, decrease in OD370, 37° C., 15-20 h, read-out: KATII IC50.

As a reminder, the IC50 is the midpoint of a concentration-inhibition curve. Regarding `N#Cc1cccc(Oc2ccc3c(c2)C[C@H](N)C(=O)N3O)c1` [Example 70, 3-{[(3S)-3-amino-1-hydroxy-2-oxo-1,2,3,4-tetrahydroquinolin-6-yl]oxy}benzonitrile, hydrochloride salt], the IC50 under setting [1] was 24.6 nM. `CN(C)C(=O)ON1C(=O)[C@@H](N)Cc2ccccc21` [Example 73, (3S)-3-amino-1-[(dimethylcarbamoyl)oxy]-3,4-dihydroquinolin-2(1H)-one, hydrochloride salt] had an IC50 of 1090 nM. Turning to `N[C@H]1Cc2cccc(CN3CCOCC3)c2N(O)C1=O` [Example 74, (3S)-3-amino-1-hydroxy-8-(morpholin-4-ylmethyl)-3,4-dihydroquinolin-2(1H)-one, trifluoroacetic acid salt], the IC50 under setting [1] stood at 151 nM. Turning to `COc1cc2c(cc1Cc1ccccc1)C[C@H](N)C(=O)N2O` [Example 75, (3S)-3-amino-6-benzyl-1-hydroxy-7-methoxy-3,4-dihydroquinolin-2(1H)-one, hydrochloride salt], the IC50 under setting [1] stood at 35.2 nM. As to `CN(Cc1ccc2c(c1)C[C@H](N)C(=O)N2O)c1ccccc1` [Example 76, (3S)-3-amino-1-hydroxy-6-{[methyl(phenyl)amino]methyl}-3,4-dihydroquinolin-2(1H)-one], the IC50 under setting [1] was 34.6 nM. The same measure, in the same setting: the result for `N[C@H]1Cc2cccc(Oc3ccccc3)c2N(O)C1=O` [Example 77] reads 80.1 nM; that for `COc1cccc(Oc2ccc3c(c2)C[C@H](N)C(=O)N3O)c1` [Example 78], 17.3 nM. Turning to `N[C@H]1Cc2cc(Oc3cccc(C(F)(F)F)c3)cnc2N(O)C1=O` [Example 79], the IC50 under setting [1] was 29.5 nM. The same measure, in the same setting: as for `COc1cccc(Oc2cnc3c(c2)C[C@H](N)C(=O)N3O)c1` [Example 80], the figure is 31.1 nM; as for `N[C@H]1Cc2ccc3c(c2N(O)C1=O)CCO3` [Example 81], 212 nM. Regarding `N#Cc1ccccc1Oc1ccc2c(c1)CC(N)C(=O)N2O` (stereo not drawn) [Example 82], under setting [1], the IC50 turned out to be 41.1 nM.

`COc1cc2c(cc1Cc1cccc(C(F)(F)F)c1)C[C@H](N)C(=O)N2O` [Example 83]: under setting [1], the IC50 was determined as 39.7 nM. The same measure, in the same setting: as for `NC1Cc2cc(Oc3ccc(O)nc3)ccc2N(O)C1=O` (stereo not drawn) [Example 84], the figure is 41.1 nM; as for `NC1Cc2cc(Oc3ccc(F)cc3F)ccc2N(O)C1=O` (stereo not drawn) [Example 85], 39.9 nM; as for `NC1Cc2cc(F)cc(Oc3ccccc3)c2N(O)C1=O` (stereo not drawn) [Example 86], 65 nM. Consider `Cc1ncccc1Oc1ccc2c(c1)CC(N)C(=O)N2O` (stereo not drawn) [Example 87], for which the IC50 under setting [1] was 40.9 nM.

Regarding `Cc1ccc(Oc2ccc3c(c2)CC(N)C(=O)N3O)cn1` (stereo not drawn) [Example 88], the IC50 under setting [1] is 20.9 nM. Same read-out and setting: the result for `NC1Cc2cc(Oc3cc(F)ccc3F)ccc2N(O)C1=O` (stereo not drawn) [Example 89] reads 36.4 nM. For `N[C@H]1Cc2cccc(-c3cccnc3C(F)(F)F)c2N(O)C1=O` [Example 90], the IC50 under setting [1] came out at 355 nM. On the same count and under the same terms, the result for `COc1ccc(Oc2ccc3c(c2)CC(N)C(=O)N3O)cc1` (stereo not drawn) [Example 91] reads 36.2 nM; that for `NC1Cc2cc(Oc3ccccn3)ccc2N(O)C1=O` (stereo not drawn) [Example 92], 51.3 nM.

As to `NC1Cc2cc(Oc3cccc(C(F)(F)F)c3)ccc2N(O)C1=O` (stereo not drawn) [Example 93], the IC50 under setting [1] was determined as 35.6 nM. Take `NC1Cc2cc(Oc3cccc(OC(F)(F)F)c3)ccc2N(O)C1=O` (stereo not drawn) [Example 94]: under setting [1], the IC50 came to 43.9 nM. Turning to `NC1Cc2cc(Oc3cccnc3)ccc2N(O)C1=O` (stereo not drawn) [Example 95], the IC50 under setting [1] is 35.9 nM. `N[C@H]1Cc2cccc(OCC(F)(F)F)c2N(O)C1=O` [Example 96]: under setting [1], the IC50 worked out at 49.6 nM. Still for that read-out and setting: the result for `N[C@H]1Cc2cccc(-c3ccccc3)c2N(O)C1=O` [Example 97] reads 313 nM.

For `Cc1ccc(Oc2ccc3c(c2)CC(N)C(=O)N3O)cc1` (stereo not drawn) [Example 98], the IC50 under setting [1] came to 31.9 nM. Still for that read-out and setting: the result for `N#Cc1ccc(Oc2ccc3c(c2)CC(N)C(=O)N3O)cc1` (stereo not drawn) [Example 99] reads 19.8 nM; that for `NC1Cc2cc(Oc3ccncc3)ccc2N(O)C1=O` (stereo not drawn) [Example 100], 103 nM; that for `NC1Cc2cc(Oc3cccc(Cl)c3)ccc2N(O)C1=O` (stereo not drawn) [Example 101], 39.7 nM. Still for that read-out and setting: as for `NC1Cc2cc(Oc3ccc(C(F)(F)F)cc3)ccc2N(O)C1=O` (stereo not drawn) [Example 102], the figure is 68.6 nM; as for `NC1Cc2cc(Oc3ccc(OC(F)(F)F)cc3)ccc2N(O)C1=O` (stereo not drawn) [Example 103], 77.5 nM; as for `COc1cc(Cl)c2c(c1)N(O)C(=O)[C@@H](N)C2` [Example 104], 307 nM. Same read-out and setting: the result for `NC1Cc2cc(Oc3ccc(Cl)cc3)ccc2N(O)C1=O` (stereo not drawn) [Example 105] reads 68.1 nM. On to `NC1Cc2cc(Oc3cccc(F)c3)ccc2N(O)C1=O` (stereo not drawn) [Example 106], for which the IC50 under setting [1] came out at 49.2 nM. Still for that read-out and setting: the result for `NC1Cc2cc(Oc3ccccc3F)ccc2N(O)C1=O` (stereo not drawn) [Example 107] reads 56.7 nM. Regarding `NC1Cc2cc(Oc3ccc(F)cc3)ccc2N(O)C1=O` (stereo not drawn) [Example 108], the IC50 under setting [1] amounted to 70.1 nM. The same measure, in the same setting: the result for `N[C@H]1Cc2c(F)ccc(Cl)c2N(O)C1=O` [Example 109] reads 288 nM. Turning to `CCc1cccc2c1N(O)C(=O)[C@@H](N)C2` [Example 110], the IC50 under setting [1] stood at 983 nM.

As for `N[C@H]1Cc2c(ccc(Oc3ccccc3)c2F)N(O)C1=O` [Example 111], the IC50 under setting [1] was found to be 45.2 nM. Take `N[C@H]1Cc2cc(C3CCOCC3)ccc2N(O)C1=O` [Example 112]: the IC50 under setting [1] was 49.3 nM. On the same count and under the same terms, as for `N[C@H]1Cc2cc(Cl)cc(Cl)c2N(O)C1=O` [Example 113], the figure is 301 nM; as for `N[C@H]1Cc2c(ccc(F)c2F)N(O)C1=O` [Example 114], 37 nM.

In the case of `N[C@H]1Cc2cc(Cl)c(Cl)cc2N(O)C1=O` [Example 115], the IC50 under setting [1] was determined as 52.7 nM. Still for that read-out and setting: as for `N[C@H]1Cc2c(ccc(C3CC3)c2F)N(O)C1=O` [Example 116], the figure is 51.9 nM; as for `N[C@H]1Cc2c(ccc(Cl)c2F)N(O)C1=O` [Example 117], 53.7 nM. Same read-out and setting: as for `COc1cccc2c1N(O)C(=O)C(N)C2` (stereo not drawn) [Example 118], the figure is 1270 nM; as for `N[C@H]1Cc2cccc(C(F)F)c2N(O)C1=O` [Example 119], 41.1 nM. The same measure, in the same setting: the result for `N[C@H]1Cc2cc(F)cc(F)c2N(O)C1=O` [Example 120] reads 61.9 nM; that for `N[C@H]1Cc2cc(Oc3ccc(Cl)cc3)cnc2N(O)C1=O` [Example 124], 35.1 nM; that for `COc1cccc(Cc2cc3c(cc2OC)N(O)C(=O)[C@@H](N)C3)c1` [Example 125], 17.2 nM. Consider `COc1cc2c(cc1Cc1cccc(C#N)c1)C[C@H](N)C(=O)N2O` [Example 126], for which the half-maximal inhibitory concentration (IC50) under setting [1] came out at 30.9 nM. The same measure, in the same setting: as for `N[C@H]1Cc2cc(Cc3ccccc3)cnc2N(O)C1=O` [Example 127], the figure is 28.2 nM. For `Cc1nc2c(cc1Cc1ccccc1)C[C@H](N)C(=O)N2O` [Example 128], the IC50 under setting [1] is 25.5 nM. On the same count and under the same terms, the result for `N#Cc1cccc(Oc2cnc3c(c2)C[C@H](N)C(=O)N3O)c1` [Example 129] reads 49.1 nM. For `N[C@H]1Cc2ccncc2N(O)C1=O` [Example 130], the IC50 under setting [1] was found to be 1570 nM. The same measure, in the same setting: the result for `N[C@H]1Cc2cc(-c3cccc(OC(F)(F)F)c3)ccc2N(O)C1=O` [Example 131, (3S)-3-amino-1-hydroxy-6-[3-(trifluoromethoxy)phenyl]-3,4-dihydroquinolin-2(1H)-one, trifluoroacetate salt] reads 246 nM.
